Experimental data: US20210340177A1, “BIOACTIVE PEPTIDES HAVING HIGH BINDING AFFINITY TO HUMAN MUSCULAR NICOTINIC ACETYLCHOLINE RECEPTOR” (priority 2020, published 2021)

Key:
[1] = tested on: muscle cells; format: cell-based; details: for Contraction of muscle cells after the washing step (reversibility): incubation for 24 hours followed by a washing step
Description: The efficacy of peptides V0083091A (KKYK; SEQ ID NO: 1) and V0083092A (KWKK; […]. Muscle cells were incubated or treated without (control) or with compounds, for example, peptides V0083091A and V0083092A, and contraction of the muscle cells was evaluated after incubation for 5 hours, after incubation for 24 hours, or after incubation for 24 hours followed by a washing step.

[2] = tested on: Human epidermal keratinocytes (HEKs); test: MTT assay on human epidermal keratinocytes in in vitro cultures; details: 24 hours after treatment
[3] = molecular target: human muscular nicotinic acetylcholine receptor (HmnAChR) (Homo sapiens, UniProt P02708+Q04844); test: Binding energy of peptides in the HmnAChR binding site over runs of genetic algorithm; details: Table 3, difference of binding energies (no unit printed in Table 3)
[4] = molecular target: human muscular nicotinic acetylcholine receptor (HmnAChR) (human)
human muscular nicotinic acetylcholine receptor (HmnAChR) (human), sequence (P02708 21-457, chain 1 of 4): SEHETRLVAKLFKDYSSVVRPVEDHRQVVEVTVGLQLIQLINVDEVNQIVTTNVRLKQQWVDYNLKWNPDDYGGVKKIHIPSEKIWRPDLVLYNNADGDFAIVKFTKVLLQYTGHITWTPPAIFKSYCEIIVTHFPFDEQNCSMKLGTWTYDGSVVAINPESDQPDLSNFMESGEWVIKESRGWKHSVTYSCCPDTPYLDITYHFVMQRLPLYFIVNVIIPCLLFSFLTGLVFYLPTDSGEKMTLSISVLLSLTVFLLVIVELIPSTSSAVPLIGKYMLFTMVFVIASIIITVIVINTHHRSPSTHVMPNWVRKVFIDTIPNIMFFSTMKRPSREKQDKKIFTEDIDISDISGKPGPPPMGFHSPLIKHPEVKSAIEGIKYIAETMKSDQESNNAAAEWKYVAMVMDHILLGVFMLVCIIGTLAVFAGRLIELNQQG
human muscular nicotinic acetylcholine receptor (HmnAChR) (human), sequence (P11230 24-501, chain 2 of 4, further chain): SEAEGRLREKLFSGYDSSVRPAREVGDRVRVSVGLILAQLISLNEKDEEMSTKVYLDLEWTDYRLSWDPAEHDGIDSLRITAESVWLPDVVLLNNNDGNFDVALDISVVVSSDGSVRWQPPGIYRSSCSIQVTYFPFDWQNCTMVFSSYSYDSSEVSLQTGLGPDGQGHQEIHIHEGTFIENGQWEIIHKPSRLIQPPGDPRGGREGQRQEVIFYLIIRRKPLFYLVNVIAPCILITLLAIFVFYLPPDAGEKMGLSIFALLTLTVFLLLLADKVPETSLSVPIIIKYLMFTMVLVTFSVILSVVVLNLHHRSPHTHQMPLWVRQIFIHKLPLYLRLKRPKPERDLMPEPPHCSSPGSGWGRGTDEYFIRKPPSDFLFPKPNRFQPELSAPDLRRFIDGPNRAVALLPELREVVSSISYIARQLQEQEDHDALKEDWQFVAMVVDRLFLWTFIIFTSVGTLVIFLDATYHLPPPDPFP
human muscular nicotinic acetylcholine receptor (HmnAChR) (human), sequence (Q07001 22-517, chain 3 of 4, further chain): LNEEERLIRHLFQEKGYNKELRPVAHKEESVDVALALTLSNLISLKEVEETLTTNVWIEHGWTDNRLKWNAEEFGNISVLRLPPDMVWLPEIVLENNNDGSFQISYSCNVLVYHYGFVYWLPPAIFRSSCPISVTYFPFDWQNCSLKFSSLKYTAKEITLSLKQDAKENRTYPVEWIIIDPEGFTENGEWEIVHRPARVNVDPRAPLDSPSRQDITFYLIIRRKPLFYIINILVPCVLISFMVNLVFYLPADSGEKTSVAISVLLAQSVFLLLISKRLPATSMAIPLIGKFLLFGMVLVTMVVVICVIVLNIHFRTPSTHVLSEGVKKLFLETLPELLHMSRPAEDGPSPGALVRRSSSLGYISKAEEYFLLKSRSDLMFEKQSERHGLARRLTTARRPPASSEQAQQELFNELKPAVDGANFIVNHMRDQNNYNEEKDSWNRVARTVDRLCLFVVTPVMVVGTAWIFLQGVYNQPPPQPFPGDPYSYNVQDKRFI
human muscular nicotinic acetylcholine receptor (HmnAChR) (human), sequence (Q04844 21-493, chain 4 of 4, further chain): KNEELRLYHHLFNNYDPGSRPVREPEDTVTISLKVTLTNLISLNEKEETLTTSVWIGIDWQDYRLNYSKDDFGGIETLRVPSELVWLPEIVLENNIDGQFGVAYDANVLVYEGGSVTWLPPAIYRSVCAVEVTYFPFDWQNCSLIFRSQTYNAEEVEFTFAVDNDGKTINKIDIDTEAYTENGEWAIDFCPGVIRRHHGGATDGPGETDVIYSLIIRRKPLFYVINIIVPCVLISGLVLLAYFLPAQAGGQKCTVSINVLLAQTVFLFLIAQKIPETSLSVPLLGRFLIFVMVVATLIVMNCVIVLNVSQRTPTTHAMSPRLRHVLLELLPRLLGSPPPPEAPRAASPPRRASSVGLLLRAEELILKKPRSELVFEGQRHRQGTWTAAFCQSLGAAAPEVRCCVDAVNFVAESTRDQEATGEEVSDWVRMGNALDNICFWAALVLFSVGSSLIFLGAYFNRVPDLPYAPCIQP

human muscular nicotinic acetylcholine receptor (HmnAChR), sequence (P02708 21-457): as the sequence (P02708 21-457, chain 1 of 4) above
human muscular nicotinic acetylcholine receptor (HmnAChR), sequence (Q04844 21-493): as the sequence (Q04844 21-493, chain 4 of 4, further chain) above
human muscular nicotinic acetylcholine receptor (HmnAChR), sequence (P11230 24-501 partner): as the sequence (P11230 24-501, chain 2 of 4, further chain) above
human muscular nicotinic acetylcholine receptor (HmnAChR), sequence (Q07001 22-517 partner): as the sequence (Q07001 22-517, chain 3 of 4, further chain) above

C/C=C/C=C\CC/C=C/C(=O)NCC(C)C [spilanthol] was tested, and the “Inhibition of contraction of muscle cells, effect size” value ([1]; 1 μM or 10 μM, 5 or 24 hours after incubation, p value<5%) was 1.5-2 and the “Contraction of muscle cells after the washing step (reversibility)” value [1] was “inhibitory effect was lost”.

In the case of Lys-Lys-Tyr-Lys [Peptide V0083091A], the “Inhibition effect on muscle cell contraction” value ([1]; 1 μM, observable after incubation for 24 hours) was “much less inhibition effect”, the “Contraction of muscle cells after the washing step (reversibility)” value [1] was “no clear recovery of the contraction power” and the “Proliferation of the HEKs” value [2] was “induced proliferation”.

In the case of “dipeptide diaminobutyroyl benzylamide diacetate [SYN ®-AKE]”, the “(Best Result − Average)” value [3] was -3.01 kcal/mol.

With peptide V0083091A (KKYK; SEQ ID NO: 1) the Binding Energy, All 100 Average [4] was -8.39 kcal/mol, the Binding Energy, Best Result [4] was -11.4 kcal/mol and the Binding Energy, Top 10 Average [4] was -10.2 kcal/mol.
